Measured values taken from US20250345383A1, “INTRANASAL ADMINISTRATION OF POLYSULFIDE” (The General Hospital Corporation, priority 2022, published 2025).

What was measured:
[1] = LC-MS/MS of ^34S-labeled GSSSG and sulfane sulfur species in CNS and plasma after intranasal GS^34SSG; type: in vivo, mouse; settings: after intranasal administration
Experimental: We used LC-MS/MS analysis to measure the amount of ^34S-labeled GSSSG ([^32S2, ^34S]GSSSG) in the CNS and plasma after intranasal administration of GS^34SSG, an isotope of endogenous GSSSG^9,35,36. The ratios of ^34S-labeled sulfane sulfur species ([^32S, ^34S]GSSH, [^32S, ^34S]cysteine hydropersulfide (CysSSH), and [^32S2, ^34S]cysteine trisulfide (CysSSSCys)) to endogenous sulfane sulfur species ([^32S2]GSSH, [^32S2]CysSSH, and […]) were also quantitatively evaluated. At 30 minutes after intranasal administration of 50 mg/kg of GS^34SSG, blood was obtained and four different central nervous tissues were harvested: olfactory bulb and forebrain; brainstem; cervical and thoracic spinal cord, and lumbar spinal cord. A total of 30 mg of each tissue was homogenized in 300 μl of ice-cold methanol solution containing 5 mM β-(4-hydroxyphenyl)ethyl iodoacetamide (HPE-IAM; Santa Cruz Biotechnology, Dallas, TX, USA). Twenty-five μl of plasma was mixed with 75 μl of ice-cold methanol solution containing 5 mM HPE-IAM. Samples were incubated for 20 minutes at 37° C. in the dark. After centrifugation (14,000×g for tissues, 1,870×g for plasma, 10 minutes, 4° C.), the supernatant was separated and diluted with 0.1% formic acid for LC-MS/MS analysis, and the pellet was sonicated to measure the protein concentration by BCA assay. The amount of [^32S2, ^34S]GSSSG was quantified in selective reaction monitoring (SRM) with precursor ion (647.14 m/z), product ion (389.1 m/z), and higher energy collisional dissociation (21 v). The ratios of [^32S, ^34S]GSSH to [^32S2]GSSH, [^32S, ^34S]CysSSH to [^32S2]CysSSH, and [^32S2, ^34S]CysSSSCys to [^32S3]CysSSSCys were calculated from their peak area measured by Dionex UltiMate 3000 RS UPLC-Orbitrap Exploris 480 mass spectrometer (Thermo Fisher Scientific, Waltham, MA, USA). In brief, samples were subjected to the UPLC system with a Hypersil Gold C-18 (100×2.1 mm, 3.0 μm, Thermo Fisher Scientific, Waltham, MA, USA) column and were then eluted by a linear methanol gradient of the mobile phase (0-90%, 15 minutes) in the presence of 0.1% formic acid at a flow rate of 0.2 ml/minute at 40° C. The raw data were analyzed by Compound Discoverer 3.3 software (Thermo Fisher Scientific, Waltham, MA, USA). The molecular weights of these sulfane sulfur species combined with HPE-IAM were determined based on previous reports^9,11,37.

[2] = test system: sulfane sulfur in lumbar spinal cord; test: Relative sulfane sulfur levels in lumbar spinal cords after SCI (SSip-1); type: in vivo, mouse; settings: 48 hours after SCI; intranasal GSSSG; sham set to 1.00±0.30, vehicle alone 0.56±0.13; mean ± SD
Experimental: Lumbar spinal cords were harvested 48 hours after surgery and snap-frozen in liquid nitrogen. Spinal cords were subsequently homogenized in Hanks' balanced salt solution (HBSS; Thermo Fisher Scientific, Waltham, MA, USA) containing SSip-1 (5 μM), incubated at room temperature in the dark for 20 minutes, and then subjected to centrifugation. SSip-1 was synthesized and provided by the Hanaoka laboratory^38. The fluorescence intensities of supernatants were measured using a microplate reader (SpectraMax M5; Molecular Devices, San Jose, CA, USA) at the wavelength of λex/λem=491 nm/525 nm. The fluorescence intensities were normalized to the weights of the spinal cord.

SH-SY5Y cells = test: Cell viability of SH-SY5Y cells incubated with MPP+ (crystal violet assay); type: cell-based, human; settings: MPP+ 5 mM, 24 h; 10 μM each
Experimental: Cell viability assays was performed to examine cell viabilities of SH-SY5Y cells or murine primary cortical neurons 24 h after the addition of MPP^+ (5 mM for SH-SY5Y, 50 μM for primary cortical neurons) with vehicle (PBS), Na2S (Sigma-Aldrich), Na2S3 (Dojindo Molecular Technologies, Inc), GSSSG (Glutathione trisulfide, Kyowa Hakko Bio Co., Ltd., Tokyo, Japan), LA (α-Lipoic acid, Sigma-Aldrich) or LASSS (α-Lipoic acid trisulfide, Kyowa Hakko Bio Co., Ltd., Tokyo, Japan). Cell viability was measured using the crystal violet assay.

## N[C@@H](CCC(=O)N[C@@H](CSSSC[C@H](NC(=O)CC[C@H](N)C(=O)O)C(=O)NCC(=O)O)C(=O)NCC(=O)O)C(=O)O [GSSSG, glutathione trisulfide]
[1]
  increase of levels of multiple sulfane sulfur species in the lumbar spinal cord: 10 to 100 fold
[2]
  relative sulfane sulfur levels in lumbar spinal cord: 1.37±0.50
SH-SY5Y cells
  viability of MPP+-treated SH-SY5Y cells: increased the viability
